# Laboratory results reported in patent EP4793275A1, “AT2R ANTAGONIST AND USE THEREOF” (Hubei Bio-Pharmaceutical Industrial Technological Institute …, priority 2023, dated 2025).
# Key:
# AT2R = biological target: T1, AT2R (Homo sapiens, UniProt P50052); assay: Binding assay of compounds to AT2R (Tag-lite HTRF ligand binding kit); conditions: labeled cells, Tag-lite red fluorescent labeled ligand, 1 hour at room temperature
# T1 construct: purchased Cisbio C1TT1AT2
# T1 sequence (P50052 1-363): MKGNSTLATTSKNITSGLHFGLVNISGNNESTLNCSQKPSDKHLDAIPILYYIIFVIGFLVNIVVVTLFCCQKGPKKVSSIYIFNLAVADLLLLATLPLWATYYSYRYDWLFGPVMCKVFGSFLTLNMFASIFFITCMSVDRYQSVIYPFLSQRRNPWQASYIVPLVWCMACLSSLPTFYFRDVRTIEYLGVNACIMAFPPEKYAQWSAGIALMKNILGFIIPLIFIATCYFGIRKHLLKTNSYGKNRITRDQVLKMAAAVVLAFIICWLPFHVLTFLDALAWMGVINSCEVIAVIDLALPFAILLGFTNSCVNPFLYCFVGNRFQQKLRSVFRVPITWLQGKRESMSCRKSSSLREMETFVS
# Experimental: The assay was performed in accordance with the manufacturer instructions of Angiotensin AT2 Receptor Ligand Binding Assay Kit (#C1TT1AT2, Cisbio). First, a 10 mM compound stock solution was diluted in a gradient at a 5× dilution ratio (including 10 concentrations, each with two replicates). 160 nL of compounds at different concentrations was added to a 384-well plate. 40 µL of 1× TLB was added to each well, and the mixture was shaken at room temperature for 15 minutes. A 15 mL centrifuge tube added with 5 mL of 1×TLB was prepared in advance. The frozen labeled cells were thawed in a water bath at 37°C (for 1 to 2 minutes), and the thawed cells were quickly transferred to the above 15 mL centrifuge tube. The mixture was mixed well and centrifuged at 1,000 g at room temperature for 5 minutes. The supernatant was removed, and the cells were resuspended by adding 2.7 mL 1× TLB. A new 384-well plate was taken, and 10 µL of mixed cells were added into the corresponding wells according to the assay design. 5 µL of 4× compound solution and 5 µL of 4× Tag-lite red fluorescent labeled ligand were added to each well. After incubation at room temperature for 1 hour, data was read using EnVision with an HTRF mode. The excitation light intensities at 665nM and 615nM in each well were read respectively, and the ratio was calculated (Ratio=A665nM/B615nM). The IC50 value was calculated by means of GraphPad Prism8 software, where X represents logarithmic value of compound concentration; and Y represents ratio of A665nM/B615nM. [Table 1] Binding activity of compounds to AT2R
# [1] = Pharmacokinetic test in canines; format: in vivo; conditions: dog; male Beagle canines, oral gavage, 5 mg/kg, plasma
# Experimental: For the pharmacokinetic test of canines, 3 male Beagle canines (10 kg to 12 kg) were employed and fasted overnight. The canines were orally administered a dose of 5 mg/kg by gavage. Blood was collected before the administration, and at 5 minutes, 15 minutes, 30 minutes, 1 hour, 2 hours, 4 hours, 6 hours, 8 hours, and 24 hours after the administration. The blood samples were centrifuged at 6,000 g and at 2°C to 8°C for 3 minutes, and plasma was collected and stored at -20°C. The plasma at each time point was taken and mixed with 10 volumes of a 50% methanol in acetonitrile solution containing an internal standard. The mixture was vortexed for 5 minutes, and centrifuged at 4,000 rpm and at 4°C for 5 minutes. The supernatant was collected and mixed with 1 volume of water. An appropriate amount of the mixture was taken for LC-MS/MS analysis. The main pharmacokinetic parameters were analyzed by a non-compartmental model using WinNonlin 7.0 software. [Table 3] Results of Pharmacokinetic Test in Canines
# hERG potassium channel = biological target: T2, hERG potassium channel (Homo sapiens, UniProt Q12809); assay: Effects on hERG channel currents by manual patch-clamp; format: cell-based; conditions: HEK-293 cell line stably expressing hERG potassium channel, tail current, room temperature; read-out: IC50 (inhibitory effects on hERG)
# T2 construct: host or cells: HEK-293
# T2 sequence (Q12809 whole entry): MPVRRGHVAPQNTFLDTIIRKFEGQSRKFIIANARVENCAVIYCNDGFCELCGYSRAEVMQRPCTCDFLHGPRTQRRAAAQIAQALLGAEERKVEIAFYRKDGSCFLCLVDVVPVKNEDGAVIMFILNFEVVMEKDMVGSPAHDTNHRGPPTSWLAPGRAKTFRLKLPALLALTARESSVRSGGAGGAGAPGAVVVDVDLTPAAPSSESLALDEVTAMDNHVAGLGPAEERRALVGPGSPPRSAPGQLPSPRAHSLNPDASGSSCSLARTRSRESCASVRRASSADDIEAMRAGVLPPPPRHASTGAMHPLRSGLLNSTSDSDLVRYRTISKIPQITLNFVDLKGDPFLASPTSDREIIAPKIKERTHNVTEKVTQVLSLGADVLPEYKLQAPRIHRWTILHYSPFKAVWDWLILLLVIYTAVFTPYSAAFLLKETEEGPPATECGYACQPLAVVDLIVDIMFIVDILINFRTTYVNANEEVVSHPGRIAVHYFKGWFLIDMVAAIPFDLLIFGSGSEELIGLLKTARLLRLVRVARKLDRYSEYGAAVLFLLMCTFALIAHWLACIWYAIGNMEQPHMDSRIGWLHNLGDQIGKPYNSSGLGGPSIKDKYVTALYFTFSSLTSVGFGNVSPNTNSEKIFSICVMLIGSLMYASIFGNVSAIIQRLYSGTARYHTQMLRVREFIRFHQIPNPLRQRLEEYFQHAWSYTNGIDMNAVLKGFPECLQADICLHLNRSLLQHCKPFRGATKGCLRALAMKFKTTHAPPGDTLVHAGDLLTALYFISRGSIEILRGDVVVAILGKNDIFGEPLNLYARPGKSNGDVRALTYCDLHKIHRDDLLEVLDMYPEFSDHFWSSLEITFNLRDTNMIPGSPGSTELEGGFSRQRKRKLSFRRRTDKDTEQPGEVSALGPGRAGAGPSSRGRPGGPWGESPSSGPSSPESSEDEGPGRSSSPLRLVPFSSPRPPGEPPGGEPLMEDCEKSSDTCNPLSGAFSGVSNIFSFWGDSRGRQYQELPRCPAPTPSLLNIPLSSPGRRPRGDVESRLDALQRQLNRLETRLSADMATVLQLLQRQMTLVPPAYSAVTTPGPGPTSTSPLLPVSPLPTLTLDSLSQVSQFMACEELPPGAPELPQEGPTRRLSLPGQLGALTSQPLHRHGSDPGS
# Experimental: A manual patch-clamp assay was conducted using an HEK-293 cell line stably expressing an hERG potassium channel. hERG potassium channel cells were purchased from Creacell Co., Ltd. (catalog No.: A-0320). Final concentrations of test compounds were freshly prepared on the day of the assay, and then the test compounds were dissolved in an extracellular solution. The extracellular solution (mM) was: […], 3.5 mM KCl, 1 mM MgCl2·6H2O, 2 mM CaCl2·2H2O, 10 mM D-Glucose, 10 mM HEPES, 1.25 mM NaH2PO4·2H2O; pH 7.4 (titrated with NaOH). An intracellular solution (mM) was: 20 mM KCl, 115 mM K-Aspartic, 1 mM MgCl2·6H2O, 5 mM EGTA, 10 mM HEPES, 2 mM Na2-ATP; pH 7.4 (titrated with KOH).
# Electrophysiological Assay: After whole-cell patch-clamp formation, the cell membrane potential was clamped at -80 mV. The holding potential was depolarized to -50 mV from -80 mV and maintained for 0.5 seconds (for leak current detection), then stepped to 30 mV for 2.5 seconds, and then rapidly repolarized back to -50 mV for 4 seconds to elicit a tail current of the hERG channel. Data was collected repeatedly every 10 seconds to observe the effects of the drug on hERG tail current (Peak tail currentcompound). A stimulation at -50 mV for 0.5 seconds was used for the leak current detection. Drug administration was initiated after the hERG current recorded in the whole-cell configuration stabilized. After each drug concentration was applied for 5 minutes (or until the current stabilized), the next concentration was tested. One or more concentrations were tested for each test compound. A current detected in each cell in a compound-free extracellular solution (Peak tail currentControl) served as an internal control for the corresponding cell. […]
# Data Analysis: The inhibition rate corresponding to each drug concentration was calculated (1-(Peak tail currentcompound/Peak tail currentControl)), and the concentration-response curves were fitted using nonlinear regression in GraphPad Prism software. The IC50 value of each compound was calculated using the following equation: Y=1/(1+10^((LogIC50-X)×HillSlope)). […]
# [2] = Pharmacokinetic test in rats; format: in vivo; conditions: rat; male SD rats, oral administration by gavage, 10 mg/kg, plasma
# Experimental: For the pharmacokinetic test of rats, 3 male SD rats (180 g to 240 g) were employed and fasted overnight. The rats were orally administered a dose of 10 mg/kg by gavage. Blood was collected before the administration, and at 15 minutes, 30 minutes, 1 hour, 2 hours, 4 hours, 6 hours, 8 hours, and 24 hours after the administration. The blood samples were centrifuged at 8,000 rpm and at 4°C for 6 minutes, and plasma was collected and stored at -20°C. The plasma at each time point was taken and mixed with 3 to 5 volumes of an acetonitrile solution containing an internal standard. The mixture was vortexed for 1 minute, and centrifuged at 13,000 rpm and at 4°C for 10 minutes. The supernatant was collected and mixed with 3 volumes of water. An appropriate amount of the mixture was taken for LC-MS/MS analysis. The main pharmacokinetic parameters were analyzed by a non-compartmental model using WinNonlin 7.0 software. [Table 2] Results of Pharmacokinetic Test in Rats
IC50 (AT2R),AUC(0-t) [1],Cmax [1],AUC(0-t) [2],Cmax [2],SMILES,IC50 (hERG potassium channel)
8 nM,–,–,–,–,"Cc1nnc(CN2CCN(c3cc(CC(C)C)cc(C(F)F)c3-c3nn[nH]n3)C[C@@H]2C)s1 [Compound I-7, (2S)-4-(3-(difluoromethyl)-2-(3H-1,2,3,4-tetrazol-5-yl)-5-isobutylphenyl)-2-methyl-1-((5-methyl-1,3,4-thiadiazol-2-yl)methyl)piperazine]",–
2.4 nM,2290 ng·h/mL,1320 ng/mL,–,–,"CC(C)Cc1cc(OC(F)F)c(-c2nn[nH]n2)c(N2CCN(Cc3cccnn3)[C@@H](C)C2)c1 [Compound I-5, (S)-3-((4-(3-(difluoromethoxy)-5-isobutyl-2-(2H-tetrazol-5-yl)phenyl)-2-methylpiperazin-1-yl)methyl)pyridazine]",22800 nM
3.6 nM,–,–,–,–,"CC(C)Cc1cc(OC(F)(F)F)c(-c2nn[nH]n2)c(N2CCN(Cc3cccnn3)[C@@H](C)C2)c1 [Compound I-6, (S)-3-((4-(5-isobutyl-2-(2H-tetrazol-5-yl)-3-(trifluoromethoxy)phenyl)-2-methylpiperazin-1-yl)methyl)pyridazine]",–
12 nM,1300 ng·h/mL,850 ng/mL,10000 ng·h/mL,3240 ng/mL,"CC(C)Cc1cc(F)c(-c2nn[nH]n2)c(N2CCN(Cc3cccnn3)[C@@H](C)C2)c1 [Control Compound I, reference compound]",2800 nM
2.5 nM,–,–,–,–,"Cc1nnc(CN2CCN(c3cc(CC(C)C)cc(OC(F)F)c3-c3nn[nH]n3)C[C@@H]2C)s1 [Compound I-8, (2S)-4-(3-((difluoromethyl)oxy)-2-(3H-1,2,3,4-tetrazol-5-yl)-5-isobutylphenyl)-2-methyl-1-((5-methyl-1,3,4-thiadiazol-2-yl)methyl) piperazine]",–
4.1 nM,–,–,14100 ng·h/mL,4380 ng/mL,"CC(C)Cc1cc(C(F)F)c(-c2nn[nH]n2)c(N2CCN(Cc3cccnn3)[C@@H](C)C2)c1 [Compound I-4, (S)-3-((4-(3-(difluoromethyl)-5-isobutyl-2-(2H-tetrazol-5-yl)phenyl)-2-methylpiperazin-1-yl)methyl)pyridazine]",> 30000 nM
